Laboratory results: patent US20230000816A1, “SODIUM-GLUCOSE LINKED TRANSPORTER INHIBITORS FOR THE MANAGEMENT OF CHRONIC KIDNEY DISEASE, HYPERTENSION, AND HEART FAILURE IN COMPANION ANIMALS” (INCREVET, INC., priority 2019, published 2023)

Legend:
[1] = molecular target: T1, human SGLT2 (Homo sapiens, UniProt P31639); assay: Inhibition of human SGLT2
T1 sequence (P31639 1-672): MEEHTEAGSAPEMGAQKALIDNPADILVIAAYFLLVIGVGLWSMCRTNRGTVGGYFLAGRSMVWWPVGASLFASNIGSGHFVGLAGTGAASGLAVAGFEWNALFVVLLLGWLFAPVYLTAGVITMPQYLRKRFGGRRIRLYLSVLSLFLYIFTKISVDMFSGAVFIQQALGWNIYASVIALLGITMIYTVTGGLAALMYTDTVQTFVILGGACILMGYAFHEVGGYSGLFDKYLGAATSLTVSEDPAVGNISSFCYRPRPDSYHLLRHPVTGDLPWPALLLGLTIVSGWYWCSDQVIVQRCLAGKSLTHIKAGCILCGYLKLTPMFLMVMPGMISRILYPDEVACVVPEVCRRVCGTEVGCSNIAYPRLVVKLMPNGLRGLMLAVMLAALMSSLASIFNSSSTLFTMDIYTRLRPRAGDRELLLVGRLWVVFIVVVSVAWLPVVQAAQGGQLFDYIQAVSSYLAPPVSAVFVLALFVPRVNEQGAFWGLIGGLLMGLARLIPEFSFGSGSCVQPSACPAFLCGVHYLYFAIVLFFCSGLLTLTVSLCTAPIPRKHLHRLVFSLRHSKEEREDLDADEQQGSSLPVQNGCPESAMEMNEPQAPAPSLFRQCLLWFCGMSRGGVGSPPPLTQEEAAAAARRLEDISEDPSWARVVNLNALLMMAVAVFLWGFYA

[2] = system: feline SGLT2; assay: Inhibition of feline SGLT2
[3] = system: purpose-bred beagles; assay: 24 h urine collection (glucose excretion, volume, electrolytes) in dogs; assay type: in vivo, dog; details: for 24 h urine Cl^− / 24 h urine K^+ / 24 h urine Na^+ / 24 h urine Volume: mean ± SD, n=4
Procedure: Groups of four purpose-bred beagles per cohort were administered ascending doses of bexagliflozin in the form of a proline co-crystal consisting of two moles of L-proline for every mole of bexagliflozin. The co-crystal was dissolved in 10% PEG400 and administered by oral gavage to dogs that had been fasted overnight. Control dogs were administered 10% PEG400. One hour after dosing, glucose solution (2 g kg^−1, 5 ml kg^−1) was administered by gavage. Serum glucose concentrations were quantitated by an automated clinical chemistry analyzer for samples collected before dosing, before glucose challenge, and 15, 30, 60, and 120 min after glucose challenge. Urine was collected from 0 to 4 h, 4 to 8 h and 8 to 24 h after dosing for electrolyte analyses (Na^+, K^+, Cl^− and Ca^2+) and glucose measurement. Whole blood samples of approximately 500 μL were collected from the cephalic vein 0, 0.25, 0.5, 1, 2, 4, 8, 12 and 24 h after dosing for pharmacokinetic analysis.
Urine output increased in the treatment group, consistent with an osmotic diuresis or with a role for the inhibited transporters in water reuptake in the proximal tubule.

[4] = system: cats with diabetes; assay: Measures of renal health (creatinine, BUN, SDMA) in diabetic cats managed with bexagliflozin, MMRM analysis; assay type: in vivo, cat
From the text: Venous blood specimens were collected at regular intervals and analyzed for standard parameters of interest for routine clinical care, including creatinine, BUN and SDMA. Owners were advised to provide a diet low in carbohydrates as an element of the disease management plan. An important consequence of the shift to a low carbohydrate diet is the increase in dietary protein (contributing to BUN) and specifically dietary muscle-derived protein (contributing to creatinine).
FIG. 6, FIG. 7 and FIG. 8 show the measured concentrations of creatinine, BUN and SDMA in cats as a function of time in the study. […] Considerable variation can be seen in the individual values.
To identify treatment-related trends, the data for each of the three analytes were analyzed by a mixed model repeated measures (MMRM) analysis of covariance, with cat as a categorical (class) effect and day of measurement and initial value at the baseline visit as continuous covariates. Because the diets of many of the animals were changed at the baseline visit, and the effects of diet on creatinine and BUN are generally thought to be prompt, the analysis considered only changes in analyte values over the non-baseline visit days.

[5] = system: cats; assay: Urinary glucose excretion in cats given bexagliflozin tablets; assay type: in vivo, cat

OC[C@H]1O[C@@H](c2ccc(Cl)c(Cc3ccc(OCCOC4CC4)cc3)c2)[C@H](O)[C@@H](O)[C@@H]1O [Bexagliflozin, (2S,3R,4R,5 S,6R)-2-(4-chloro-3-(4-(2-cyclopropoxyethoxy)benzyl)phenyl)-6-(hydroxymethyl)tetrahydro-2H-pyran-3,4,5-triol]
inhibition of human SGLT2 (in words) [1]: highly effective and specific inhibitor | inhibition of feline SGLT2 (in words) [2]: potent but less selective inhibitor | 24 h urine Cl^− ([3]; dogs, 0.02 mg kg^−1 oral): 307.4 ± 87.7 mg | 24 h urine K^+ ([3]; dogs, 0.02 mg kg^−1 oral): 426.2 ± 62.1 mg | 24 h urine Na^+ ([3]; dogs, 0.02 mg kg^−1 oral): 178.7 ± 16.7 mg | 24 h urine Volume ([3]; dogs, 0.02 mg kg^−1 oral): 118.0 ± 30.8 mL | 24 h urine Cl^− ([3]; dogs, 0.067 mg kg^−1 oral): 403.4 ± 111.4 mg | 24 h urine K^+ ([3]; dogs, 0.067 mg kg^−1 oral): 476.8 ± 96.5 mg | 24 h urine Na^+ ([3]; dogs, 0.067 mg kg^−1 oral): 220.9 ± 53.9 mg | 24 h urine Volume ([3]; dogs, 0.067 mg kg^−1 oral): 153.1 ± 44.5 mL | 24 h urine Cl^− ([3]; dogs, 0.20 mg kg^−1 oral): 526.5 ± 127.8 mg | 24 h urine K^+ ([3]; dogs, 0.20 mg kg^−1 oral): 558.8 ± 118.2 mg | 24 h urine Na^+ ([3]; dogs, 0.20 mg kg^−1 oral): 275.7 ± 69.5 mg | 24 h urine Volume ([3]; dogs, 0.20 mg kg^−1 oral): 214.1 ± 53.5 mL | 24 h urine Cl^− ([3]; dogs, 0.67 mg kg^−1 oral): 573.9 ± 166.5 mg | 24 h urine K^+ ([3]; dogs, 0.67 mg kg^−1 oral): 587.7 ± 113.5 mg | 24 h urine Na^+ ([3]; dogs, 0.67 mg kg^−1 oral): 300.2 ± 66.4 mg | 24 h urine Volume ([3]; dogs, 0.67 mg kg^−1 oral): 225.0 ± 66.9 mL | 24 h urine Cl^− ([3]; dogs, 2.0 mg kg^−1 oral): 595.8 ± 80.6 mg | 24 h urine K^+ ([3]; dogs, 2.0 mg kg^−1 oral): 599.7 ± 93.5 mg | 24 h urine Na^+ ([3]; dogs, 2.0 mg kg^−1 oral): 313.1 ± 35.1 mg | 24 h urine Volume ([3]; dogs, 2.0 mg kg^−1 oral): 247.7 ± 35.2 mL | % of the maximum pharmacological effect ([3]; dogs, approximately 1 mg kg^−1 once daily): approximately 90% | maximum urinary glucose excretion per body mass ([3]; dogs, average mass 5.84 kg): 4.23 g glucose per kg of body mass | % of the maximum pharmacodynamic effect ([3]; dogs, dose 50 μg kg^−1, based on results in beagle dogs): 30% | % of the maximum pharmacodynamic effect ([3]; dogs, dose 100 μg kg^−1): 46% | % of the maximum pharmacodynamic effect ([3]; dogs, dose 200 μg kg^−1): 63% | % of the maximum pharmacodynamic effect ([3]; dogs, dose 400 μg kg^−1): 77% | % of the maximum pharmacodynamic effect ([3]; dogs, dose 800 μg kg^−1): 87% | % of the maximum pharmacodynamic effect ([3]; dogs, dose 1600 μg kg^−1): 93% | % of the maximum pharmacodynamic effect ([3]; dogs, dose 3200 μg kg^−1): 96% | % of the maximum pharmacodynamic effect ([3]; dogs, eighth value, no matching dose printed): 98% | Emax for urinary glucose excretion ([3]; dogs, simple logistic model fit): 24.69 g of glucose in 24 h | ED50 for 24 h urinary glucose excretion ([3]; dogs, simple logistic model fit, doses 0.02 to 2.0 mg kg^−1): 0.116 mg/kg | potency by ED50 in dogs relative to cats ([3]; urinary glucose excretion ED50, dogs vs cats): approximately 4 times | model-adjusted population mean BUN concentration ([4]; diabetic cats on bexagliflozin): 33.82 mg/dL | model-adjusted population mean SDMA concentration ([4]; diabetic cats on bexagliflozin): 19.10 µg/dL | model-adjusted population mean creatinine concentration ([4]; diabetic cats on bexagliflozin, non-baseline visits): 1.367 mg/dL | estimated coefficient for day of measurement, creatinine ([4]; diabetic cats, p<0.0001): 0.000928 | estimated coefficient for day of measurement, BUN ([4]; diabetic cats, p=0.0172): −0.01346 | estimated coefficient for day of measurement, SDMA ([4]; diabetic cats, p=0.5338, not significant): −0.0021 | % of the maximum pharmacodynamic effect ([5]; cats, dose 200 μg kg^−1, based on results in purpose-bred cats): 28% | % of the maximum pharmacodynamic effect ([5]; cats, dose 400 μg kg^−1): 44% | % of the maximum pharmacodynamic effect ([5]; cats, dose 800 μg kg^−1): 61% | % of the maximum pharmacodynamic effect ([5]; cats, dose 1600 μg kg^−1): 76% | % of the maximum pharmacodynamic effect ([5]; cats, dose 3200 μg kg^−1): 86% | % of the maximum pharmacodynamic effect ([5]; cats, dose 6400 μg kg^−1): 93% | % of the maximum pharmacodynamic effect ([5]; cats, dose 12800 μg kg^−1): 96% | % of the maximum pharmacodynamic effect ([5]; cats, dose 25600 μg kg^−1): 98% | ED50 for urinary glucose excretion ([5]; cats, tablets of varying strengths, simple logistic model): approximately 0.5 mg kg^−1 | Emax for urinary glucose excretion ([5]; healthy cats): 2.21 g of glucose per kg of body mass
